Results published in patent US20220018849A1, “SERINE HYDROLASE PROFILING ASSAY IN BIOTHERAPEUTICS” (Merck Sharp & Dohme Corp., priority 2020, published 2022).

Legend:
[1] = reference 6; cited from earlier work
[2] = PS-80 degradation in protein formulations containing PLBL2 (unpublished results); type: physicochemical; settings: protein formulations containing over 500 ppm of PLBL2
[3] = test system: serine hydrolases; experiment: Activity-based chemical proteomics approach (fluorophosphonate probe enrichment, LC-MS/MS); settings: HCCF, compared to other lipases

enrichment of the enzyme by the chemical probes ([3]; listed as CHO PLBL2) | enrichment of the enzyme by the chemical probes ([3]; listed as Plbl2) | Substance | concentration at which PS-80 and PS-20 are degraded (as low as) [1] [ppm] | concentration with significant impact on PS-80 degradation [1] | PS-80 degradation [2]
 |  | phospholipase A2, group XV [Pla2g15] | 0.3 | below 1 ppm | 
not enriched | limited enrichment | phospholipase B domain containing 2 [Plbd2] |  |  | without any PS-80 degradation
